According to patent US4680290A, “Steroids for the treatment of hypercholesterolemia” (Hoffmann-La Roche Inc., priority 1983, dated 1987):

Tests used:
[1] = acute toxicity, single oral administration to mice; details: mouse, in vivo; single oral administration (p.o.) to mice
Text: (§1) The results which have been obtained with some representative products in accordance with the invention are reproduced in the Table hereinafter. There are given for each of the compounds indicated therein the dosage administered (in μmol/kg p.o.) as well as in each case the cholesterol resorption (CHORES) determined in percentages of the cholesterol resorption in the pre-period. Moreover, the Table contains data concerning the acute toxicity of the compounds investigated (LD50 in mg/kg in the case of single oral administration to mice).

[2] = tested on: intestinal resorption of cholesterol; test: inhibition of the intestinal resorption of cholesterol in squirrel monkeys (CHORES); assay type: in vivo; details: 100 μmol/kg p.o., [26-^14 C]-cholesterol in feed, faeces collected 2.5 days, % of control values determined prior to medication
Text: Squirrel monkeys are orally administered the substances to be investigated together with a feed containing a protein, starch, triolein and [26-^14 C]-cholesterol. Thereupon, the faeces is collected for 2.5 days. The difference between the administered and the excreted radioactive cholesterol determined in the faeces is taken as the measurement of resorbed cholesterol. The cholesterol resorption (CHORES) is expressed in percentages of the control values determined prior to the medication.
as §1

## CC[C@H](CC[C@@H](C)[C@H]1CC[C@H]2[C@@H]3CC[C@H]4C[C@@H](OP(=O)([O-])OCC[N+](C)(C)C)CC[C@]4(C)[C@H]3CC[C@]12C)C(C)C [3β-Stigmastanyloxy-phosphorylcholine, 3β-stigmastanyloxy-phosphorylcholine]
[1]
  LD50: 4000 mg/kg
[2]
  CHORES in % of the pre-period (cholesterol resorption): 36%

## CC[C@H](CC[C@@H](C)[C@H]1CC[C@H]2[C@@H]3CC=C4C[C@@H](OP(=O)([O-])OCC[N+](C)(C)C)CC[C@]4(C)[C@H]3CC[C@]12C)C(C)C [Stigmast-5-en-3β-yloxy-phosphorylcholine]
[1]
  LD50: 5000 mg/kg
[2]
  CHORES in % of the pre-period (cholesterol resorption): 52%

## CC[C@H](/C=C/[C@@H](C)[C@H]1CC[C@H]2[C@@H]3CC=C4C[C@@H](OP(=O)([O-])OCC[N+](C)(C)C)CC[C@]4(C)[C@H]3CC[C@]12C)C(C)C [Stigmasta-5,22-dien-3β-yloxy-phosphorylcholine]
[1]
  LD50: 5000 mg/kg
[2]
  CHORES in % of the pre-period (cholesterol resorption): 33%

## CC(C)CCC[C@@H](C)[C@H]1CC[C@H]2[C@@H]3CC[C@H]4C[C@@H](OP(=O)([O-])OCC[N+](C)(C)C)CC[C@]4(C)[C@H]3CC[C@]12C [3β-Cholestanyloxy-phosphorylcholine]
[1]
  LD50: 5000 mg/kg
[2]
  CHORES in % of the pre-period (cholesterol resorption): 26%
